# Experimental data taken from EP0545103A1, “Insecticidal, acaricidal and molluscicidal 1-(substituted) thioalkylpyrroles” (priority 1991, dated 1993).
# Assays:
# Type in all cases: in vivo
# Design in all cases: key: 0: no effect; 10-25% kill; 26-35% kill; 36-45% kill; 46-55% kill; 56-65% kill; 66-75% kill; 76-85% kill; 86-99% kill; 9: 100% kill
# [1] = system: Heliothis virescens, egg, tobacco budworm; assay: Tobacco budworm egg test, dipped cotton leaf and eggs; conditions: mortality rating after 3 days
# Description: (§1) Test solutions are prepared by dissolving the test compound in a 35% acetone in water mixture to give a concentration of 10,000 ppm. Subsequent dilutions are made with water as needed.
# Heliothis virescens, egg, tobacco budworm
# A young cotton leaf about 6-7cm in length is dipped in an agitated test suspension for about 3 seconds. Eggs are collected on a cheesecloth and the cloth is cut into 10-20mm squares, each containing approximately 50-100 eggs which are 6-30 hours old. The egg-containing cheesecloth square is similarly dipped in a test suspension and placed on a treated cotton leaf. The combination is dried in a hood and then placed in an 8 ounce Dixie® cup #2168-ST (240ml volume, 6cm tall, 9.5cm top diameter, 8.0cm bottom diameter) into which a 5cm length of damp dental wick has been placed. The cup is covered with a clear plastic lid and held for 3 days, after which mortality counts are made.
# (§2) All of the above tests are rated according to the rating scale shown below.
# [2] = system: Heliothis virescens, 3rd instar tobacco budworm; assay: Tobacco budworm 3rd instar test, dipped cotton cotyledons; conditions: mortality rating after 3 days
# Description: as §1
# Heliothis virescens, 3rd instar tobacco budworm
# Cotton cotyledons are dipped in the test solution and allowed to dry in a hood. When dry, each is cut into quarters and ten sections are placed individually in 30 mL plastic medicine cups containing a 5-7mm long piece of damp dental wick. One 3rd instar caterpillar is added to each cup and the cup is sealed with MYLAR® film. Treatments are maintained for 3 days before a mortality count and observation of reduction in feeding damage are made.
# as §2
# [3] = system: Spodoptera eridania, 3rd instar larvae, southern armyworm; assay: Southern armyworm 3rd instar test, dipped limabean leaf; conditions: for ARMYWORM Day 3: rating at 3 days; for ARMYWORM Day 5: rating at 5 days
# Description: as §1
# Spodoptera eridania, 3rd instar larvae, southern armyworm
# A Sieva limabean leaf expanded to 7-8 cm in length is dipped in the test solution with agitation for 3 seconds and allowed to dry in a hood. The leaf is then placed in a 100 x 10 mm petri dish containing a damp filterpaper on the bottom and ten 3rd instar caterpillars. At 3 and 5 days, observations are made of mortality, reduced feeding, or any interference with normal molting.
# as §2
# [4] = system: Spodoptera eridania, 3rd instar larvae, southern armyworm; assay: Southern armyworm 7-day residual test; conditions: R designates Residual: 7-day residual foliage, concentration not given; for ARMYWORM Day 3 R: rating at 3 days; for ARMYWORM Day 5 R: rating at 5 days
# Description: as §1
# Spodoptera eridania, 3rd instar larvae, southern armyworm, 7-day residual
# The limabean leaves treated in the above test are maintained under high intensity lamps in the greenhouse for 7 days. These lamps duplicate the effects of a bright sunny day in June in New Jersey and are kept on for 14 hour day length. After 7 days, the foliage is sampled and assayed as in the above-said test.
# as §2
# [5] = system: Spodoptera eridania, 3rd instar larvae, southern armyworm; assay: Southern armyworm systemic uptake (stem systemic) test; conditions: cut stem in emulsion 3 days
# Text: Spodoptera eridania, systemic uptake, 3rd instar larvae, southern armyworm
# Subsequent 10-fold dilutions are made with water as needed. Sieva limabean plants, with the primary leaves expanded to a length of 7-8 cm, are cut off at least 3 cm above the soil level to avoid contamination with soil bacteria which will cause decay of the stem during the test. The cut stem is placed in the test emulsion and wrapped with a bit of cotton to hold the stem off the bottom of the bottle and to limit evaporation. The treated stem is thus maintained for 3 days at 27° C to allow the test compound to be taken up into the plant. Following this, one leaf is removed from the plant and placed in a 100 x 10 mm petri dish with 10 southern armyworms as described above. Mortality counts and observations of feeding damage are made 3 and 5 days later.
# as §2
# [6] = system: Diabrotic undecimpunctata howardi, 3rd instar southern corn rootworm; assay: Southern corn rootworm soil test; conditions: mortality rating after 6 days
# Description: Diabrotic undecimpunctata howardi, 3rd instar southern corn rootworm
# One cc of fine talc is placed in a 30 mL wide-mouth screw-top glass jar. One mL of the appropriate acetone test solution is pipetted onto the talc so as to provide 1.25 and 0.25 mg of active ingredient per jar. The jars are set under a gentle air flow until the acetone is evaporated. The dried talc is loosened, 1 cc of millet seed is added to serve as food for the insects and 25 mL of moist soil is added to each jar. The jar is capped and the contents thoroughly mixed on a Vortex Mixer. Following this, ten 3rd instar rootworms are added to each jar and the jars are loosely capped to allow air exchange for the larvae. The treatments are held for 6 days when mortality counts are made. Missing larvae are presumed dead, since they decompose rapidly and can not be found. The concentrations used in this test correspond approximately to 50 and 10 kg/ha, respectively.
# as §2
SMILES,TOBACCO BUDWORM Egg ([1]; 1000 ppm),TOBACCO BUDWORM 3rd Instar ([2]; 10 ppm),TOBACCO BUDWORM 3rd Instar ([2]; 100 ppm),TOBACCO BUDWORM 3rd Instar ([2]; 1000 ppm),ARMYWORM Day 3 ([3]; 10 ppm),ARMYWORM Day 5 ([3]; 10 ppm),ARMYWORM Day 3 ([3]; 100 ppm),ARMYWORM Day 5 ([3]; 100 ppm),ARMYWORM Day 3 ([3]; 1000 ppm),ARMYWORM Day 5 ([3]; 1000 ppm),ARMYWORM Day 3 R [4],ARMYWORM Day 5 R [4],ARMYWORM Stem Sys [5],SOUTHERN CORN ROOTWORM ([6]; 1 (ppm as headed)),SOUTHERN CORN ROOTWORM ([6]; 10 (ppm as headed)),SOUTHERN CORN ROOTWORM ([6]; 50 (ppm as headed)),TOBACCO BUDWORM Egg ([1]; 100 ppm),TOBACCO BUDWORM Egg ([1]; 300 ppm)
CC(C)OP(=S)(OC(C)C)SCn1c(-c2ccc(Cl)cc2)c(C#N)c(Br)c1C(F)(F)F [Example 27],0,0,7 (76-85% kill),9 (100% kill),0,0,9 (100% kill),9 (100% kill),9 (100% kill),9 (100% kill),9 (100% kill),9 (100% kill),0,6 (66-75% kill),7 (76-85% kill),9 (100% kill),,
CN(C)C(=S)SCn1c(Br)c(Br)c(C#N)c1Br [Example 31],0,,,6 (66-75% kill),0,0,9 (100% kill),9 (100% kill),9 (100% kill),9 (100% kill),9 (100% kill),9 (100% kill),0,,,0,,
CSCn1c(Br)c(Br)c(C#N)c1SC [Example 43],0,,,0,0,0,0,0,9 (100% kill),9 (100% kill),,,0,,,0,,
N#Cc1c(Br)c(C(F)(F)F)n(CS(=O)(=O)c2ccccc2)c1-c1ccc(Cl)cc1 [Example 46],0,,,,0,0,0,0,9 (100% kill),9 (100% kill),4 (46-55% kill),9 (100% kill),0,0,0,8 (86-99% kill),,
CN(C)C(=S)SCn1c(Cl)c(Cl)c(C#N)c1-c1ccc(Cl)c(Cl)c1 [Example 32],0,,0,0,0,0,,,,,0,0,0,,,0,,
N#Cc1c(Br)c(Br)n(CSC(=N)N)c1Br [Example 20],0,0,0,9 (100% kill),0,0,9 (100% kill),9 (100% kill),9 (100% kill),9 (100% kill),6 (66-75% kill),,,,,0,0,0
N#Cc1c(Br)c(C(F)(F)F)n(CSc2nc3ccccc3o2)c1-c1ccc(Cl)cc1 [Example 6],0,0,,,0,,9 (100% kill),,9 (100% kill),,9 (100% kill),9 (100% kill),0,0,,,,
CCN(CC)C(=S)SCn1c(-c2ccc(Cl)cc2)c(C#N)c(Br)c1C(F)(F)F [Example 26],0,9 (100% kill),9 (100% kill),9 (100% kill),9 (100% kill),9 (100% kill),9 (100% kill),9 (100% kill),9 (100% kill),9 (100% kill),9 (100% kill),9 (100% kill),0,0,,,,
N#Cc1c(Br)c(Br)n(CSCc2ccccc2)c1Br [Example 40],0,,0,0,0,0,0,0,9 (100% kill),9 (100% kill),0,,0,,,0,,
N#Cc1c(Br)c(C(F)(F)F)n(CSc2nc3ccccc3[nH]2)c1-c1ccc(Cl)cc1 [Example 9],0,,0,0,,,0,0,6 (66-75% kill),7 (76-85% kill),9 (100% kill),9 (100% kill),0,,,0,,
